Patent US20230255906A1, “Targeting Serpin B9 in Cancer” (The Brigham and Women`s Hospital, Inc., priority 2020, published 2023)

Tested on: B16 melanoma cells
Test: Caspase-3 activity assay (EnzChek Caspase-3 Assay Kit), caspase-3 induction in tumor cells; also: test concentration or dose not given here
Format: cell-based, mouse
Details: for Caspase-3 induction, Normalized to Formula (III) (%): relative to compound of Formula (III)
Source text: The EnzChek® Caspase-3 Assay Kit was used to detect apoptosis by assaying for increases in caspase-3 activities. The basis for the assay was rhodamine 110 bis-(N-CBZ-L-aspartyl-L-glutamyl-L-valyl-L-aspartic acid amide) (Z-DEVD-R110). This substrate is a bisamide derivative of rhodamine 110 (R110) containing DEVD peptides covalently linked to each of R110's amino groups, thereby suppressing the dye's visible absorption and its fluorescence. Upon enzymatic cleavage, the nonfluorescent bisamide substrate is converted in a two-step process first to a fluorescent monoamide and then to an even more fluorescent R110.
At least 1×10^6 cells of the lysate were used for each reaction. B16 cells were treated with compounds to induce apoptosis. A negative control was prepared by incubating cells in the absence of compounds. The cells were incubated with compounds for 24 hrs and washed in PBS. Each cell sample or control was resuspended in 50 μL of the 1×cell lysis buffer. Cells were lysed by incubating on ice for 30 minutes, and the lysed cells were centrifuged to pellet the cellular debris. 50 μL of the supernatant was transferred from each sample to individual microplate wells. 50 μL of the 1× cell lysis buffer was used as a no-enzyme control to determine the background fluorescence of the substrate. 50 μL of the 2×substrate working solution was added to each sample and control. The microplate was covered, and the samples were incubated at room temperature for approximately 30 minutes. The fluorescence was measured by a fluorescence microplate reader (excitation/emission ˜496/520 nm) using excitation and emission filters.
The ability of this small molecule inhibitor to inhibit intracellular Sb9 was then evaluated. As a marker for cell penetration, the induction of caspase-3 activity in B16 melanoma cells as a surrogate marker for increased GrB activity was measured.
The induction of caspase-3 activity in B16 melanoma cells as a surrogate marker for increased GrB activity was also measured for other small molecules (compounds of Formulas (V) and (VI) as described herein).

SMILES | Ratio of caspase-3 activity to Formula (III) | Caspase-3 induction, Normalized to Formula (III) (%)
O=C(c1ccc2nc(-c3ccccc3)oc2c1)N1C[C@@H](F)C[C@H]1CO [[(2S,4S)-4-fluoro-1-(2-phenyl-1,3-benzoxazole-6-carbonyl)pyrrolidin-2-yl]methanol] | 0.09723 | –
COCCCNC(=O)c1cccc2oc(N(C)C)nc12 [2-(dimethylamino)-N-(3-methoxypropyl)-1,3-benzoxazole-4-carboxamide] | – | −31.049
Cc1cc(CNC(=O)c2ccc3oc(-c4cccc(F)c4)nc3c2)nn1C [N-[(1,5-dimethyl-1H-pyrazol-3-yl)methyl]-2-(3-fluorophenyl)-1,3-benzoxazole-5-carboxamide] | 0.123 | –
CC(O)CNC(=O)c1ccc2oc(-c3ccc(C(F)(F)F)cc3)nc2c1 (stereo not shown) [N-(2-hydroxypropyl)-2-[4-(trifluoromethyl)phenyl]-1,3-benzoxazole-5-carboxamide] | 0.0922 | –
O=C(c1cc2c(cc1O)OCO2)N1CCCC1 [6-(pyrrolidine-1-carbonyl)-2H-1,3-benzodioxol-5-ol] | – | −35.7785
CN(CC(O)CO)C(=O)c1ccc2oc(-c3ccc(C(F)(F)F)cc3)nc2c1 (stereo not shown) [N-(2,3-dihydroxypropyl)-N-methyl-2-[4-(trifluoromethyl)phenyl]-1,3-benzoxazole-5-carboxamide] | 0.135 | –
CCN(C)C(=O)c1ccc(O)c(OC)c1 [N-ethyl-4-hydroxy-3-methoxy-N-methylbenzamide] | – | −33.3917
COc1cccc(-c2nc3ccc(C(=O)NCC4CCCO4)cc3o2)c1 (stereo not shown) [2-(3-methoxyphenyl)-N-(tetrahydro-2-furanylmethyl)-1,3-benzoxazole-6-carboxamide] | 0.4304 | –
COCCCNC(=O)c1cc2c(cc1O)OCO2 [6-hydroxy-N-(3-methoxypropyl)-2H-1,3-benzodioxole-5-carboxamide] | – | −41.8942
CCOC(=O)CCNC(=O)c1ccc2oc(-c3cccc(F)c3)nc2c1 [ethyl N-{[2-(3-fluorophenyl)-1,3-benzoxazol-5-yl]carbonyl}-beta-alaninate] | 0.09329 | –
CN(Cc1cccnc1)C(=O)c1ccc2oc(-c3ccc(C(F)(F)F)cc3)nc2c1 [N-methyl-N-(3-pyridinylmethyl)-2-[4-(trifluoromethyl)phenyl]-1,3-benzoxazole-5-carboxamide] | 0.1669 | –
COc1cc(C(=O)NCC2CCOCC2)cc(OC)c1O [4-hydroxy-3,5-dimethoxy-N-[(oxan-4-yl)methyl]benzamide] | – | −78.7609
COc1cc(C(=O)NCCN(C)C)cc(OC)c1O [N-[2-(dimethylamino)ethyl]-4-hydroxy-3,5-dimethoxybenzamide] | – | −5.767
CCN(C)C(=O)c1ccc2nc(C3CCCO3)oc2c1 (stereo not shown) [N-ethyl-N-methyl-2-(oxolan-2-yl)-1,3-benzoxazole-6-carboxamide] | – | 8.3538
COc1cc(C(=O)NCC2CCOCC2)ccc1OC(C)C [3-methoxy-N-[(oxan-4-yl)methyl]-4-(propan-2-yloxy)benzamide] | – | −66.2788
O=C(c1ccc2nc(-c3cc(Cl)cc(Cl)c3)oc2c1)N1CCCC1 [2-(3,5-dichlorophenyl)-6-(pyrrolidine-1-carbonyl)-1,3-benzoxazole] | – | −6.23
O=C1CN(C(=O)c2ccc3oc(-c4ccc(C(F)(F)F)cc4)nc3c2)CCN1 [4-({2-[4-(trifluoromethyl)phenyl]-1,3-benzoxazol-5-yl}carbonyl)-2-piperazinone] | 1.698 | –

SMILES | Ratio of caspase-3 activity to Formula (III) | Caspase-3 induction, Normalized to Formula (III) (%)
CCN1CCN(C(=O)c2ccc3nc(-c4cccc(OC)c4)oc3c2)[C@@H](C)C1=O [(3S)-1-ethyl-4-{[2-(3-methoxyphenyl)-1,3-benzoxazol-6-yl]carbonyl}-3-methyl-2-piperazinone] | 0.1434 | –
O=C(c1ccc2oc(-c3ccc(C(F)(F)F)cc3)nc2c1)N1CCC[C@H]1CO [[(2S)-1-({2-[4-(trifluoromethyl)phenyl]-1,3-benzoxazol-5-yl}carbonyl)-2-pyrrolidinyl]methanol] | 0.1353 | –
CCn1ccnc1CN(C)C(=O)c1ccc2oc(-c3ccc(C(F)(F)F)cc3)nc2c1 [N-[(1-ethyl-1H-imidazol-2-yl)methyl]-N-methyl-2-[4-(trifluoromethyl)phenyl]-1,3-benzoxazole-5-carboxamide] | 0.1566 | –
COc1cc(Br)c(C(=O)N2CCCC2)cc1OC [1-(2-bromo-4,5-dimethoxybenzoyl)pyrrolidine] | – | 18.4794
COc1cccc(-c2nc3ccc(C(=O)N(C)Cc4c(C)n[nH]c4C)cc3o2)c1 [N-[(3,5-dimethyl-1H-pyrazol-4-yl)methyl]-2-(3-methoxyphenyl)-N-methyl-1,3-benzoxazole-6-carboxamide] | 0.1324 | –
COC(=O)C1CCN(C(=O)c2ccc3nc(-c4cccc(OC)c4)oc3c2)CC1 [methyl 1-{[2-(3-methoxyphenyl)-1,3-benzoxazol-6-yl]carbonyl}-4-piperidinecarboxylate] | 0.1376 | –
COc1cccc(-c2nc3ccc(C(=O)NCC(F)(F)F)cc3o2)c1 [2-(3-methoxyphenyl)-N-(2,2,2-trifluoroethyl)-1,3-benzoxazole-6-carboxamide] | 0.09526 | –
COCCCNC(=O)c1ccc2nc(C3CC3)oc2c1 [2-cyclopropyl-N-(3-methoxypropyl)-1,3-benzoxazole-6-carboxamide] | – | −4.759
CN(C)c1nc2c(C(=O)N3CCCC3)cccc2o1 [N,N-dimethyl-4-(pyrrolidine-1-carbonyl)-1,3-benzoxazol-2-amine] | – | −22.9856
COCCCNC(=O)c1cc(O)c(O)cc1C [4,5-dihydroxy-N-(3-methoxypropyl)-2-methylbenzamide] | – | −55.7377
O=C(c1ccc2nc(C3CC3)oc2c1)N1CCCC1 [2-cyclopropyl-6-(pyrrolidine-1-carbonyl)-1,3-benzoxazole] | – | −27.4144
COc1cccc(-c2nc3ccc(C(=O)NCC4CCCCO4)cc3o2)c1 (stereo not shown) [2-(3-methoxyphenyl)-N-(tetrahydro-2H-pyran-2-ylmethyl)-1,3-benzoxazole-6-carboxamide] | 1.425 | –
CCN(C)C(=O)c1cc2c(cc1O)OCO2 [N-ethyl-6-hydroxy-N-methyl-2H-1,3-benzodioxole-5-carboxamide] | – | −3.424
O=C(NC1CCCC1)c1ccc2nc(C3CC3)oc2c1 [N-cyclopentyl-2-cyclopropyl-1,3-benzoxazole-6-carboxamide] | – | −21.5068
O=C(NCc1cccnc1)c1ccc2oc(-c3cccc(F)c3)nc2c1 [2-(3-fluorophenyl)-N-(3-pyridinylmethyl)-1,3-benzoxazole-5-carboxamide] | 0.1077 | –
O=C(NCCCO)c1ccc2oc(-c3ccc(C(F)(F)F)cc3)nc2c1 [N-(3-hydroxypropyl)-2-[4-(trifluoromethyl)phenyl]-1,3-benzoxazole-5-carboxamide] | 1.003 | –
CCOc1ccc(C(=O)N2CCCC2)cc1O [2-ethoxy-5-(pyrrolidine-1-carbonyl)phenol] | – | −21.427
